Measured values from PubChem BioAssay (NCI).
Values joined by “and” are separate entries in the source; they are usually repeats but may differ in a detail not shown here. Identical values can stand only once.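 Interpolation was linear, between the two tested concentrations surrounding the appropriate level; five concentrations were tested over 48 hours in 96-well plates. At the GI50, growth is halved. TGI marks complete inhibition of growth.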

Experiments:
Assay in all cases: inhibition of tumour cell growth, NCI panel, 48 h
[1] = tested on: UACC-257 melanoma
[2] = tested on: OVCAR-5 ovarian
[3] = tested on: U251 CNS
[4] = tested on: SF-295 CNS
[5] = tested on: SK-OV-3 ovarian
[6] = tested on: COLO 205 colon
[7] = tested on: A549 NSCLC
[8] = tested on: HOP-62 NSCLC
[9] = tested on: MALME-3M melanoma
[10] = tested on: OVCAR-4 ovarian

CCC[CH2][Sn]1([CH2]CCC)[O]N=Cc2ccccc2[O]1
GI50 [1]: 1.31 µM
TGI [1]: 2.74 µM
GI50 [2]: 1.69 µM
TGI [2]: 3.08 µM
GI50 [3]: 0.387 µM
TGI [3]: 1.41 µM
GI50 [4]: 0.93 µM
TGI [4]: 2.13 µM
GI50 [5]: 2.96 µM
TGI [5]: 6.15 µM
GI50 [6]: 0.713 µM
TGI [6]: 1.96 µM
GI50 [7]: 1.84 µM
TGI [7]: 3.8 µM
GI50 [8]: 1.62 µM
TGI [8]: 3.12 µM
GI50 [9]: 0.439 µM
TGI [9]: 0.978 µM
GI50 [10]: 2.03 µM
TGI [10]: 3.51 µM

COC(=O)C12CC(NC(=O)c3csc([C@@H](C[C@H](C(C)C)N(C)C(=O)[C@@H](NC(=O)[C@H]4CCCCN4C)C(C)C)OC(C)=O)n3)(C1)C2
GI50 [1]: > 33.3 µM
TGI [1]: > 33.3 µM
TGI [2]: > 33.3 µM
GI50 [3]: 0.00429 µM and 0.00333 µM
TGI [3]: > 33.3 µM
GI50 [4]: 0.00454 µM
GI50 [5]: 0.00639 µM and 0.00333 µM
TGI [5]: > 33.3 µM
GI50 [6]: 0.00141 µM
TGI [6]: 0.0162 µM
GI50 [7]: 0.0163 µM and 0.00413 µM
TGI [7]: > 33.3 µM
GI50 [8]: 0.00353 µM
GI50 [9]: 7.16 µM
TGI [9]: > 33.3 µM
TGI [10]: > 33.3 µM

CCN(CC)CCn1nc2c3c(cccc3c1=O)-c1ccccc1-2
GI50 [1]: 1.96 µM
TGI [1]: 10.7 µM
GI50 [2]: 2.3 µM
TGI [2]: > 50 µM
GI50 [3]: 2.18 µM
TGI [3]: 24.7 µM
GI50 [4]: 1.39 µM
TGI [4]: 7.45 µM
GI50 [5]: 2.13 µM
TGI [5]: > 50 µM
GI50 [6]: 1.86 µM
TGI [6]: 10.2 µM
GI50 [7]: 1.05 µM
TGI [7]: 19.8 µM
GI50 [8]: 2.18 µM
TGI [8]: 15.9 µM
GI50 [9]: 1.67 µM
TGI [9]: 7.37 µM
GI50 [10]: 3.33 µM
TGI [10]: 26 µM

CCN(CC)c1ccc(/C=C2/NC(=O)NC2=O)cc1
GI50 [1]: 4.01 µM
TGI [1]: > 100 µM
GI50 [2]: 10.5 µM
TGI [2]: > 100 µM
GI50 [3]: 6.05 µM
TGI [3]: > 100 µM
GI50 [4]: 4.36 µM
TGI [4]: > 32.7 µM
GI50 [5]: 6.84 µM
TGI [5]: > 100 µM
GI50 [6]: 4.63 µM
TGI [6]: 23.6 µM
GI50 [7]: 9.9 µM
TGI [7]: > 100 µM
GI50 [8]: 10 µM
TGI [8]: > 100 µM
GI50 [9]: 16 µM
TGI [9]: > 100 µM
GI50 [10]: 22.6 µM
TGI [10]: > 100 µM

CCCCCCCC(=O)O[C@H]1[C@H]2[C@@H](CC1(C)C)C(=O)[C@]13O[C@H]1C(=O)[C@]1(CO1)[C@]23C
GI50 [1]: 5.03 µM
TGI [1]: 10.8 µM and 7.04 µM
GI50 [2]: 15.3 µM
TGI [2]: 28.8 µM and 25.9 µM
GI50 [3]: 5.8 µM
TGI [3]: 11.9 µM and 22.8 µM
GI50 [4]: 20.2 µM
TGI [4]: 43.7 µM and 36.5 µM
GI50 [5]: 20.7 µM
TGI [5]: 44.6 µM and 61.9 µM
GI50 [6]: 2.17 µM
TGI [6]: 5.18 µM and 4.07 µM
GI50 [7]: 22.5 µM
TGI [7]: 38.2 µM and 63.6 µM
GI50 [8]: 19.5 µM
TGI [8]: 38.9 µM and 40.2 µM
TGI [9]: 10.9 µM and 6.34 µM
GI50 [10]: 2.83 µM
TGI [10]: 9.2 µM and 9.85 µM

CC(C)S(=O)(=O)ON1C(=O)c2ccc([N+](=O)[O-])cc2C1=O
TGI [1]: > 100 µM
TGI [2]: > 100 µM
TGI [3]: > 100 µM
TGI [4]: > 100 µM
TGI [5]: > 100 µM
TGI [6]: > 100 µM
TGI [7]: > 100 µM
TGI [8]: > 100 µM
TGI [9]: > 100 µM
TGI [10]: > 100 µM

O=C(O)CSc1nnc(COc2ccccc2)n1-c1ccccc1
TGI [1]: > 100 µM
TGI [2]: > 100 µM
TGI [3]: > 100 µM
TGI [4]: > 100 µM
TGI [5]: > 100 µM
TGI [6]: > 100 µM
TGI [7]: > 100 µM
TGI [8]: > 100 µM
TGI [9]: > 100 µM
TGI [10]: > 100 µM

CC(C)C(NCc1c2ccccc2nc2ccccc12)C(=O)O (centres undefined)
TGI [1]: > 100 µM
TGI [2]: > 100 µM
TGI [3]: > 100 µM
TGI [4]: > 100 µM
TGI [5]: > 100 µM
TGI [6]: > 100 µM
TGI [7]: > 100 µM
TGI [8]: > 100 µM
TGI [9]: > 100 µM
TGI [10]: 42.8 µM

CC[C@@]1(O)C(=O)N(CCN(C)C)Cc2c1cc1n(c2=O)Cc2cc3ccccc3nc2-1
GI50 [1]: > 100 µM
TGI [1]: > 100 µM
GI50 [2]: > 100 µM
TGI [2]: > 100 µM
GI50 [3]: 18.9 µM
TGI [3]: > 100 µM
GI50 [4]: 5.63 µM
TGI [4]: > 100 µM
GI50 [5]: > 100 µM
TGI [5]: > 100 µM
GI50 [6]: > 91.6 µM
TGI [6]: > 100 µM
GI50 [7]: 26 µM
TGI [7]: > 100 µM
GI50 [8]: 5.21 µM
TGI [8]: > 100 µM
GI50 [9]: > 100 µM
TGI [9]: > 100 µM
GI50 [10]: 58.1 µM
TGI [10]: > 100 µM

CC(=O)O[C@H]1Cc2c([nH]c3ccccc23)[C@@H](c2ccc(Cl)cc2)N1C(=O)CCNC(C)(C)C
GI50 [1]: 4.99 µM
TGI [1]: 9.66 µM
GI50 [2]: 4.24 µM
TGI [2]: 8.54 µM
GI50 [3]: 4.33 µM
TGI [3]: 8.62 µM
GI50 [4]: 4.54 µM
TGI [4]: 9.01 µM
GI50 [5]: 4.53 µM
TGI [5]: 8.97 µM
GI50 [6]: 3.47 µM
TGI [6]: 7.7 µM
GI50 [7]: 5.19 µM
TGI [7]: 10.1 µM
GI50 [8]: 2.67 µM
TGI [8]: 7.07 µM
GI50 [9]: 4.26 µM
TGI [9]: 8.96 µM
GI50 [10]: 3.06 µM
TGI [10]: 7.14 µM

COc1ccc2nc(NC(=O)C(=O)C(C#N)c3ccc(CC#N)cc3)sc2c1 (centres undefined)
TGI [1]: > 100 µM
TGI [2]: > 100 µM
TGI [3]: > 100 µM
TGI [4]: > 100 µM
TGI [5]: > 100 µM
TGI [6]: > 100 µM
TGI [7]: > 100 µM
TGI [8]: > 100 µM
TGI [9]: > 100 µM
TGI [10]: > 100 µM

O=C1NC(=Nc2ccccc2Cl)SC1C(=O)Nc1ccc([N+](=O)[O-])cc1[N+](=O)[O-] (centres undefined)
TGI [1]: > 100 µM
TGI [2]: > 100 µM
TGI [3]: > 100 µM
TGI [4]: > 100 µM
TGI [5]: > 100 µM
TGI [6]: > 100 µM
TGI [7]: > 100 µM
TGI [8]: > 100 µM
TGI [9]: > 100 µM
TGI [10]: > 100 µM

CCc1cc(Nc2nccc(-c3c(-c4ccc(OC)c(C(=O)Nc5c(F)cccc5F)c4)nc4ccccn34)n2)c(OC)cc1N1CCC(N2CCN(S(C)(=O)=O)CC2)CC1
GI50 [1]: > 40.1 µM
TGI [1]: > 100 µM
GI50 [2]: > 100 µM
TGI [2]: > 100 µM
GI50 [3]: > 100 µM
TGI [3]: > 100 µM
GI50 [4]: > 100 µM
TGI [4]: > 100 µM
GI50 [5]: > 100 µM
TGI [5]: > 100 µM
TGI [6]: > 100 µM
GI50 [7]: > 48.3 µM
TGI [7]: > 100 µM
GI50 [8]: > 100 µM
TGI [8]: > 100 µM
GI50 [9]: > 100 µM
TGI [9]: > 100 µM
GI50 [10]: > 100 µM
TGI [10]: > 100 µM

CCn1c(-c2nonc2N)nc2c(C#CC(C)(C)O)ncc(OCC3CCNCC3)c21
GI50 [1]: > 20.7 µM
TGI [1]: > 25 µM
GI50 [2]: > 25 µM
TGI [2]: > 25 µM
GI50 [3]: 3.99 µM
TGI [3]: > 25 µM
GI50 [4]: 5.29 µM
TGI [4]: > 25 µM
GI50 [5]: 10.4 µM
TGI [5]: > 25 µM
GI50 [6]: 4.84 µM
TGI [6]: 15.2 µM
GI50 [7]: 10.7 µM
TGI [7]: > 25 µM
GI50 [8]: 11.5 µM
TGI [8]: > 25 µM
GI50 [9]: > 25 µM
TGI [9]: > 25 µM
GI50 [10]: > 25 µM
TGI [10]: > 25 µM

CCOc1c(Cc2ccccc2)c(=O)n2c3ccccc3n3c(=O)n(C)c(=O)c1c23
TGI [1]: > 100 µM
TGI [2]: > 100 µM
TGI [3]: > 100 µM
TGI [4]: > 100 µM
TGI [5]: > 100 µM
TGI [6]: > 100 µM
TGI [7]: > 100 µM
TGI [8]: > 100 µM
TGI [9]: > 100 µM
TGI [10]: > 100 µM

CC1CC(=O)CC[C@@H]1OCc1ccccc1 (some centres undefined)
TGI [1]: > 100 µM
TGI [2]: > 100 µM
TGI [3]: > 100 µM
TGI [4]: > 100 µM
TGI [5]: > 100 µM
TGI [6]: > 100 µM
TGI [7]: > 100 µM
TGI [8]: > 100 µM
TGI [9]: > 100 µM
TGI [10]: > 100 µM

Nc1ccc(C(=O)N/C(=C\c2ccc3c(c2)OCO3)c2nc3ccc4c(c3[nH]2)C(=O)c2ccccc2C4=O)cc1
TGI [1]: > 100 µM
TGI [2]: > 100 µM
TGI [3]: > 100 µM
TGI [4]: > 100 µM
TGI [5]: 79.7 µM
TGI [6]: > 100 µM
TGI [7]: 79.3 µM
TGI [8]: > 100 µM
TGI [9]: > 100 µM
TGI [10]: > 100 µM

Cc1cncc2cccc(S(=O)(=O)N3CCCNC[C@@H]3C)c12
GI50 [1]: > 100 µM
TGI [1]: > 100 µM
GI50 [2]: 17.1 µM
TGI [2]: > 100 µM
GI50 [3]: 57.2 µM
TGI [3]: > 100 µM
GI50 [4]: 4.46 µM
TGI [4]: > 100 µM
GI50 [5]: 24 µM
TGI [5]: > 100 µM
GI50 [6]: 2.85 µM
TGI [6]: 18.8 µM
GI50 [7]: 14.6 µM
TGI [7]: > 100 µM
GI50 [8]: 11.5 µM
TGI [8]: > 100 µM
GI50 [9]: 99.5 µM
TGI [9]: > 100 µM
GI50 [10]: > 100 µM
TGI [10]: > 100 µM
